Experimental data: patent US11213522B2, “Autoimmune-induced glutamatergic receptor dysfunction methods and treatments” (SARAH HERZOG MEMORIAL HOSPITAL EZRAT NASHIM ASSOCIATION, priority 2013, dated 2022)

Legend:
[1] = system: patient positive for anti-NR1 NMDAR antibodies; test: Test of Attentional Vigilance (TOAV); format: in vivo, human; conditions: post-6 weeks D-serine
Procedure: (§1) The trial consisted of two periods, starting with a 2 week lead-in/stabilization period (−2-0) following which the patient was entered in the second period of the study which consisted of a 6 week (0-6), open-label, fixed dose therapy phase. During this phase, the patient received adjuvant treatment with DSR, whose dose was increased from 1500 mg/day (week 1) to 2000 mg/day (weeks 2 and 3) to 3000 mg/day (weeks 4 and 5) and to 4000 mg/day (week 6). The doses of the ongoing medication received by the patient remained fixed throughout the study and no changes in medication were performed.
(§2) In addition, cognitive performance was assessed pre- and post DSR treatment. For this purpose, a 1.5-hour neurocognitive assessment battery (nine computerized and two paper/pencil tests) was employed that measures accuracy and speed of performance in major cognition domains, including attention/vigilance, planning, short-term and working memory, decision making, abstraction and mental flexibility. All the tests were formatted like games and puzzles, and were administered to the patient as part of the comprehensive neuropsychiatric assessment at baseline and the end of study. The neurocognitive battery included the 1) Test of Attentional Vigilance (TOAV, (Forbes, 1998, Journal of Clinical Psychology 54:461-476; Greenberg, 1993, Journal of Child Psychology and Psychiatry 34: 1019-30)); 2) Tower of London (TOL, (Shailice, 1982, Specific impairments of planning Philosophical Transactions of the Royal Society of London. Series B, Biological Sciences 298:199-209); 3-4) Digit Span Test (DST, forward and backward (Wechsler 1997, The Wechsler adult intelligence scale-III. San Antonio, Tex.: Psychological Corporation; Kaplan 1991, The WAIS-R as a neuropsychological instrument. San Antonio, Tex.: The Psychological Corporation; Lamar et al., 2007, Neuropsychologia 45:245-54; Lamar et al., 2008, Neuropsychologia 46:2597-601)); 5-6) Corsi Block Tapping Test (CBTT, forward and backward, (Corsi, 1972, Dissertation Abstracts International. […]

[2] = system: patient positive for anti-NR1 NMDAR antibodies; test: Corsi Block Tapping Test (CBTT), forward and backward; format: in vivo, human; conditions: post-6 weeks D-serine
Procedure: as §1
as §2, with “International. 34:819B; Kessels et al., 2000, Applied Neuropsychology 7:252-58, Kessels et al., 2008, Assessment 15:426-34)); 7) Flanker Task (Erikson and Eriksen, 1974; Perception & Psychophysics 25: 249-63, Stins et. al., 2007, Advances in Cognitive Psychology 3:389-96); 8) Time Wall (Perez et al., 1987, Unified Tri-services cognitive performance assessment battery: review and methodology; DTIC Document ADA181697, http://www.dtic.mil/dtic/tr/fulltext/u2/a81697.pdf); and Wisconsin Card Sort Test (WCST, (Berg, 1948, J Gen Psychol39:15-22; Nelson, 1976, Cortex 12:313-24)).” for “International.”

[3] = system: patient positive for anti-NR1 NMDAR antibodies; test: Time Wall; format: in vivo, human; conditions: post-6 weeks D-serine
Procedure: as §1
In addition, cognitive performance was assessed pre- and post DSR treatment. For this purpose, a 1.5-hour neurocognitive assessment battery (nine computerized and two paper/pencil tests) was employed that measures accuracy and speed of performance in major cognition domains, including attention/vigilance, planning, short-term and working memory, decision making, abstraction and mental flexibility. All the tests were formatted like games and puzzles, and were administered to the patient as part of the comprehensive neuropsychiatric assessment at baseline and the end of study. […]

[4] = doses of ≤4 g/day; cited from earlier work

N[C@H](CO)C(=O)O [D-serine]
TOAV Commission errors ([1]; pre-treatment 1): 0 | TOAV Omission errors ([1]; pre-treatment 1): 2 | TOAV Response time, mean ± SD ([1]; pre-treatment 562 ± 103): 523 ± 93 milliseconds | CBTT Backward Span Length (2-9) ([2]; pre-treatment 4): 3.5 | CBTT Forward Span Length (2-9) ([2]; pre-treatment 5): 4 | CBTT Backward Number Correct (0-16) ([2]; pre-treatment 6): 5 | CBTT Forward Number Correct (0-16) ([2]; pre-treatment 8): 6 | Time Wall accuracy score, mean ± SD ([3]; pre-treatment 0.056 ± 0.053): 0.077 ± 0.051 | Time Wall correctly estimated trials, total (0-20) ([3]; pre-treatment 12): 6 | Adverse events [4]: No significant adverse events
